Read-outs that look alike come from different tables or passages of the source.
Tests used:
MAIDS virus [1] = assay: Adoptive transfer of CD4+ CD25+/- cells into MAIDS infected, day 14 Vinblastine treated mice; assay type: in vivo; conditions: uninfected donor cells into MAIDS-infected day 14 Vb-treated recipients; n=5
Source text: An adoptive transfer experiment was designed to directly test the hypothesis that CD4+ CD25+ T cells are functioning as the regulator cells in the murine AIDS model. The same approach used to determine that the regulator cells are CD4+ T cells was used to test whether the CD4+ CD25+ subset are the target of day 14 Vinblastine treatment. […] 2.0×10^6 cells of the regulator CD4+ CD25+ phenotype were purified from single cell suspensions of donor spleens using MACS beads (Miltenyi Biotec) using two positive selection steps. The cells were then tested for purity by flow cytometry (both CD4+ CD25+ and CD4+ CD25− fractions were of >90% purity) and viability using trypan blue exclusion prior to transfer into uninfected (control) and MAIDS infected day 14 Vinblastine treated mice. CD4+ CD25− cells were also transferred to allow that the regulator cells may not present in the CD25+ fraction and also to allow for the possibility that these putative regulator cells may lose CD25 expression as they expand and become activated as was reported by Gavin et al., 2002.
Mice receiving adoptive transfer of cells were either uninfected (control) or MAIDS infected and day 14 Vinblastine treated to examine whether the transfer of cells would result in disease progression. […] Disease progression was assessed by spleen weight at 10 weeks post MAIDS infection.

MAIDS virus [2] = assay: Spleen cell transfer into MAIDS infected, day 14 Vb treated mice; assay type: in vivo
Source text: The experiments illustrated in FIG. 7 were designed to determine if a single dose of Vb, administered at 14 days pi, is eliminating a population of expanding CD4^+regulator T cells and thereby releasing effector cells from down-regulation and clearing the host of the MAIDS virus.
Mice were infected with MAIDS, received day 14 pi Vb treatment and then received an adoptive transfer of ~10^7 spleen cells from donor mice prepared as outlined in FIG. 7. For each experiment [designated (I), (II) and (III)] groups consisted of 7 recipient mice and 9 donor mice. Mice in Group I received whole spleens from infected mice that had not received any Vb treatment. Mice in Group II received whole spleen cell preparations, from infected mice, that had been depleted of CD4^+ cells using a FACS cell sorter after staining with fluorochrome-labeled anti-CD4 monoclonal antibody. […] Mice in Group III received whole spleens from infected donor mice that also received Vb treatment on day 14 pi.

[3] = system: CD4+, CD8+ and CD25+CD4+ T cells of spleen; assay: FACS analysis of spleen cells following Vb therapy on day 14 post infection; assay type: in vivo, mice
Description: FACS analysis of CD4^+ and CD8^+ T cells prepared from spleens of mice treated with Vb on Day 14 pi was performed (FIG. 6). CD25^+CD4^+ T cells were also examined as they have recently been identified as having an important regulatory function in mouse models of autoimmune disease and tumour immunology (Takahashi et al., 1998; Shimizu et al., 1999). It is possible that these cells may play a role in the regulation of the immune response to MAIDS. Day 14 pi and uninfected control mice were given Vb therapy and the spleens collected at 48 hours post Vb treatment.

[4] = system: LP-BM5 murine leukemia virus (MuLV); assay: MAIDS development in LP-BM5 infected mice after a single dose of vinblastine at different times post infection; assay type: in vivo, C57BL/6 mice
Source text: A murine AIDS (MAIDS) pathology induced by LP-BM5 murine leukemia virus (MuLV) in susceptible mice is an effective tool to investigate mechanisms of retrovirus-induced immunodeficiency. […] Infection of a susceptible strain such as C57BL/6 mice with LP-BM5 leads to chronic splenomegaly, hypergammaglobulinaemia and development of immunodeficiency in both T and B cells. In vitro, there is a progressive impairment in the responsiveness of T-cells and B-cells to mitogenic or specific antigenic stimuli. In vivo, infected mice become increasingly susceptible to challenge with a variety of opportunistic organisms and can develop B-cell lymphoma. Deaths are first observed at 8-10 weeks post-infection (pi), and all mice die within 24 weeks (FIG. 1). These alterations in immune function reflect complex changes in the phenotype and function of all components of the immune network.
The treatment with a single dose of the anti-mitotic agent vinblastine (Vb) at different times pi is able to prevent the development/progression of MAIDS. […] Clearly, the Vb treatment is remarkably therapeutic when administered at 6 hr or 14 days pi with 100% ( 10/10) and 74% ( 20/27) of mice, respectively, showing no signs of MAIDS development at 10 weeks pi (as determined by spleen weight, histology and FACS analysis). […] Additional experiments have provided results of 100% of mice having no signs of MAIDS development at least 12 months after Vb treatment 14 days pi (data not shown). Although not as pronounced as the protection seen after day 14 treatment, moderate protection from MAIDS development was still observed. […] The total protection from MAIDS development seen in mice given Vb at 6 hrs pi is not unexpected as the virus replicates in actively replicating cells which are the target of the anti-mitotic drug thus any cells infected with the virus are killed by the Vb preventing the virus from rapidly establishing an infection in the host. However, the highly protective effect observed after a single treatment with Vb at 14 days pi is quite remarkable as, by this stage, the viral infection is well established and the early disease processes are well underway. We propose that this highly therapeutic effect is due to the Vb targeting a particular subset of immune regulator cells during their expansion phase and thereby altering the immune response to the viral infection. […] This leads to long term disease free survival for many months post-infection and treatment.
Spleens from the Day 14 pi Vb treated mice as well as infected and uninfected control mice were weighed and examined histologically. The splenic architecture of all MAIDS infected mice was profoundly disorganised as previously reported (Hartley et al., 1989).

murine T cell lymphoma = conditions: cited from earlier work
MAIDS virus [5] = assay: Rechallenge with MAIDS virus following protective vinblastine therapy; assay type: in vivo, mice; conditions: Vb at day 14 pi, rechallenge at 3 or 8 weeks post Vb treatment
Source text: To determine if mice protected from MAIDS by the day 14 pi Vb treatment develop an immune response which would then protect them from a subsequent rechallenge with the MAIDS virus groups of mice, given the Vb therapy at day 14 pi, were rechallenged with the MAIDS virus at 3 or 8 weeks post Vb treatment. […] This is not an unexpected result as the dominant immunosuppression by the regulator population of cells would have been restored as a consequence of the immune effector response to the second (untreated) infection.

CC[C@]1(O)C[C@@H]2CN(CCc3c([nH]c4ccccc34)[C@@](C(=O)OC)(c3cc4c(cc3OC)N(C)[C@H]3[C@@](O)(C(=O)OC)[C@H](OC(C)=O)[C@]5(CC)C=CCN6CC[C@]43[C@@H]65)C2)C1 [Vb, vinblastine]
disease progression (spleen weight at 10 weeks post MAIDS infection) after transfer of CD4+ CD25+/- cells (MAIDS virus [1]): disease progression was readily apparent
protection from MAIDS development after spleen cell transfer (MAIDS virus [2]; Group I: ~10^7 whole spleen cells from MAIDS infected donors without Vb): completely prevented Vb from protecting mice from MAIDS development
protection from MAIDS development after spleen cell transfer (MAIDS virus [2]; Group II: donor spleen cells depleted of CD4+ cells by FACS sorting): the protective effect of Vb was not overcome
protection from MAIDS development after spleen cell transfer (MAIDS virus [2]; Group III: spleen cells from infected donors also given day 14 Vb): fully protected from MAIDS development
cell subsets targeted in MAIDS infected mice (uninfected to infected ratios) ([3]; CD4+ T cells and CD25+CD4+ T cells, 48 hours post Vb at day 14 pi): preferentially targeted
effect on spleen cell subsets ([3]; spleens collected 48 hours post Vb, day 14 pi and uninfected mice): all cell subsets are reduced
mice protected from any splenomegaly at 20 weeks pi ([4]; Vb at day 14 pi, 4/5 mice): 80%
mice having no signs of MAIDS development at least 12 months after treatment ([4]; Vb treatment 14 days pi, additional experiments, data not shown): 100%
splenic architecture (histology) at 10 weeks pi ([4]; day 14 pi Vb treated mice with normal spleen weights (below 0.25 g)): indistinguishable from that of uninfected control mice
FACS analysis of spleen cells: cellular proportions (CD4+, CD8+ and B cells) and distributions at 10 weeks pi ([4]; day 14 pi Vb treated mice, preliminary, data not shown): like those observed in normal uninfected mice
mice showing no signs of MAIDS development at 10 weeks pi (spleen weight, histology, FACS analysis) ([4]; single 6 mg/kg i.p. dose at 6 hr pi, 10/10 mice): 100%
mice showing protective effect (no signs of MAIDS) at 10 weeks pi ([4]; single 6 mg/kg i.p. dose at 6 days pi, 6/13 mice): 46%
mice showing no signs of MAIDS development at 10 weeks pi (spleen weight, histology, FACS analysis) ([4]; single 6 mg/kg i.p. dose at 14 days pi, 20/27 mice): 74%
protection against MAIDS development ([4]; single 6 mg/kg i.p. dose at day 2 pi): no protection against MAIDS development
protection against MAIDS development ([4]; single 6 mg/kg i.p. dose at day 7 pi): no protection against MAIDS development
effect on tumour (murine T cell lymphoma; single dose at day 10 following tumour inoculation): enhancement
effect on tumour (murine T cell lymphoma; single dose at days 4, 6, 13 and 15 following tumour inoculation): regression
protection from viral rechallenge (splenomegaly, lymphadenopathy at 20 weeks) (MAIDS virus [5]): not protected from viral rechallenge
